Test: Evaluation of solubility of acid generators in resist solvents (concentration at which completely dissolved)
Assay type: physicochemical
Settings: for Solubility in EL (% by weight): ethyl lactate; for Solubility in PGMEA (% by weight): propylene glycol monomethyl ether acetate; for Solubility in PGME (% by weight): propylene glycol monomethyl ether
Method: With respect to each of the compounds, propylene glycol monomethyl ether acetate (PGMEA) solutions, propylene glycol monomethyl ether (PGME) solutions and ethyl lactate (EL) solutions of various concentrations were prepared. The prepared solutions were stirred to evaluate the concentration at which the acid generator was completely dissolved.

[1] = Table 1, concentration at which completely dissolved

SMILES | Solubility in EL (% by weight) (Table 1) | Solubility in PGMEA (% by weight) (Table 1) | Solubility in PGME (% by weight) [1] | Solubility in EL (% by weight) (Table 8) | Solubility in PGME (% by weight) (Table 8) | Solubility in PGMEA (% by weight) (Table 8)
c1ccc(-[s+]2c3ccccc3c3ccccc32)cc1 [(b1-01), phenyldibenzothiophenium nonafluorobutane sulfonate] | 20 % by weight | 20 % by weight | 10-15 % by weight | – | – | –
c1ccc([S+](c2cccc3ccccc23)c2cccc3ccccc23)cc1 [(1)] | – | – | – | 5.0 % by weight | 5.0 % by weight | <2.0 % by weight
c1ccc([S+](c2cccc3ccccc23)c2cccc3ccccc23)cc1 [(b′-01), di(1-naphthyl)phenylsulfonium nonafluorobutane sulfonate] | 5 % by weight | 5 % by weight | <2 % by weight | – | – | –
Cc1cc(-[s+]2c3ccccc3c3ccccc32)cc(C)c1OCOC1CCCCC1 [b1-100] | – | – | – | >30 % by weight | >30 % by weight | >30 % by weight
Cc1cc(-[s+]2c3ccccc3c3ccccc32)cc(C)c1OC(=O)OC(C)(C)C [Compound (b1-81)] | 20 % by weight | 20 % by weight | 10 % by weight | – | – | –
Cc1cc(-[s+]2c3ccccc3c3ccccc32)cc(C)c1O [Compound (b1-51)] | 10-15 % by weight | 10-15 % by weight | <2 % by weight | – | 10~15 % by weight | –
c1ccc(-[s+]2c3ccccc3c3ccccc32)cc1 [(2)] | – | – | – | 20.0 % by weight | 20.0 % by weight | 10~15 % by weight

Source: patent US7488568B2, “Resist composition, method of forming resist pattern, compound and acid generator” (Tokyo Ohka Kogyo Co., Ltd., priority 2008, dated 2009)
